Legend:
Type in all cases: cell-based
[1] = biological target: T1, ERα (Homo sapiens, UniProt P03372); assay: Degradation of ERα in T-47D cells (immunoblotting, 4 h); parameters: host or cells: T-47D
T1 sequence (P03372 1-595): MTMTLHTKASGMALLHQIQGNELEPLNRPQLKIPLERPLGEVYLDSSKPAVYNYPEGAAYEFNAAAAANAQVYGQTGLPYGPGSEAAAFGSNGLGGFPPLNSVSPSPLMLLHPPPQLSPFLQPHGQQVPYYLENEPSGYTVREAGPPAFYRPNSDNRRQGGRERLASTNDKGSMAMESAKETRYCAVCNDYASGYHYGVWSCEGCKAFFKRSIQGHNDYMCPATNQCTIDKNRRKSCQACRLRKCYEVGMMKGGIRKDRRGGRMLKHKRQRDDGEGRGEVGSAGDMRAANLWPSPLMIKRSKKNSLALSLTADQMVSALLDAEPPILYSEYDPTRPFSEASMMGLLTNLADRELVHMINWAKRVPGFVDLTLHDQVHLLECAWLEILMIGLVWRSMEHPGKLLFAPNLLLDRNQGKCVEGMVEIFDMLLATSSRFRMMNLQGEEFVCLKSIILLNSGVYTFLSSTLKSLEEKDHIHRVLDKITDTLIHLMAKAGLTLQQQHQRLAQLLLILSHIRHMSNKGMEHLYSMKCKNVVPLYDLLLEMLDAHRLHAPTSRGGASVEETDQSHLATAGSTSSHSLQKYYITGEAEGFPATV
Procedure, shortened: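 T-47D cells were treated with compound (final 0.15-1000 nM, DMSO) for 4 h at 37°C, 5% CO2. Cells were lysed in RIPA buffer with protease inhibitor, and ERα protein in the cleared lysate was measured by immunoblotting.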

[2] = test system: MCF-7 cells; assay: Inhibition of cell proliferation of MCF-7 cells (CCK-8, 9 days)
Procedure, shortened: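 MCF-7 cells seeded at 800 cells/well in DMEM with 10% FBS, exposed to a range of compound concentrations for 9 days at 37°C, 5% CO2. Viability read by CCK-8; IC50 derived for proliferation inhibition.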

[3] = biological target: T1, ERα; assay: Degradation of ERα in MCF-7 cells (immunoblotting, 4 h)
Procedure, shortened: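 MCF-7 cells treated 4 h at 37°C with compounds at 0.15-1000nM final. ERα in lysates measured by immunoblot, with band grayscale normalized to an internal reference protein. Degradation rate calculated against DMSO-treated control.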

[4] = test system: T-47D cells; assay: Inhibition of cell proliferation in T-47D cells (CCK-8, 6 days); details: 6 days of treatment
Procedure, shortened: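 T-47D cells at 3,000 cells/well in RPMI 1640 with 10% FBS were exposed to a concentration series of PROTAC compounds for 6 days at 37 °C, 5% CO2. Viability was read by CCK-8, and IC50 values were derived for proliferation inhibition.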

[5] = test system: MCF-7 cells; assay: Inhibition of cell proliferation of MCF-7 cells (CCK-8, 6 days); details: 6 days of treatment, Table 4
Text: Test Example 3 Inhibitory effect of the PROTAC compounds provided in the present disclosure on cell proliferation of MCF-7 cells
The complete medium required for MCF-7 cells (source ATCC) was DMEM (gibco, Product number :11995-065) basal medium containing 10% fetal bovine serum. MCF-7 cells were inoculated in 96-well plates at a density of 800 cells/well, and different concentrations of the PROTAC compounds 1-55 provided in the examples of the present disclosure and a positive control sample ARV-471 (source: Innochem) were prepared to treat the cells, and the cells were treated at 37°C in a cell culture incubator with 5% CO2 for 6 days. Cell viability was detected using a CCK-8 kit (Beyotime, Product number: C0040) according to the manufacturer's instructions. The IC50 values of each PROTAC compound after 6 days of treatment were calculated using GraphPadPrism software based on the inhibition rate, and the results are shown in Table 4. Table 4 IC50 values for inhibition of the proliferation of MCF-7 cells by the PROTAC compounds of the present disclosure and positive control sample

[6] = treated for 9 days, CCK-8 kit (Table 6)

Row | Compound | Degradation rate (%) of ERα in T-47D cells ([1]; 10nM compound) [%] | IC50 [2, 6] [nM] | Degradation rate (%) of ERα in MCF-7 cells ([3]; 10nM compound) [%] | IC50 ([4]; Table 2) [nM] | IC50 ([4]; Table 3) [nM] | IC50 [5] [µM] | Degradation rate (%) of ERα in T-47D cells ([1]; 1nM compound) [%] | IC50 ([2]; Homo sapiens, MCF7, 216 h, 9 days of treatment, CCK-8, Table 5) [nM] | Degradation rate (%) of ERα in MCF-7 cells ([3]; 1nM compound) [%] | IC50 ([4]; Homo sapiens, T47D, 144 h, Table 2) [nM] | IC50 ([5]; Homo sapiens, MCF7, 144 h) [µM]
1 | O=C1CCC(N2C(=O)c3cc4c(cc3C2=O)C2(CCN(CC3CCN(c5ccc(C6c7ccc(O)cc7CCC6c6ccccc6)cc5)CC3)CC2)CO4)C(=O)N1 (stereo not drawn) [A8] | -22 | 19 | -42 | 104 | 104 | 19 | – | – | – | – | –
2 | O=C1CCC(N2C(=O)c3cc4c(cc3C2=O)OC2(CC4)CCN(C3CCC4(CC3)CCN(c3ccc(C5c6ccc(O)cc6CCC5c5ccccc5)cc3)CC4)CC2)C(=O)N1 (stereo not drawn) [A12] | -1 | 4.6 | 4 | 127 | 127 | 4.6 | – | – | – | – | –
3 | O=C1CCC(N2C(=O)c3cc4c(cc3C2=O)OCC2(CCN(C3CCC5(CC3)CN(c3ccc(C6c7ccc(O)cc7CCC6c6ccccc6)cc3)C5)CC2)C4)C(=O)N1 (stereo not drawn) [A14] | 4 | – | 5 | 44 | – | 4.82 | – | – | – | – | –
4 | O=C1CCC(N2C(=O)c3cc4c(cc3C2=O)OCC2(CCN(C3CCC5(CC3)CCN(c3ccc(C6c7ccc(O)cc7CCC6c6ccccc6)cc3)CC5)CC2)C4)C(=O)N1 (stereo not drawn) [A15] | 16 | – | -2 | 63 | – | 1.19 | – | – | – | – | –
5 | O=C1CCC(N2C(=O)c3cc4c(cc3C2=O)C2(CCN(C3CCC5(CC3)CN(c3ccc(C6c7ccc(O)cc7CCC6c6ccccc6)cc3)C5)CC2)CO4)C(=O)N1 (stereo not drawn) [A20] | 36 | – | 18 | 25 | – | 11.6 | – | – | – | – | –
6 | O=C1CCC(N2C(=O)c3cc4c(cc3C2=O)OCC2(CCN(C3CC5(CCN(c6ccc(C7c8ccc(O)cc8CCC7c7ccccc7)cc6)CC5)C3)CC2)C4)C(=O)N1 (stereo not drawn) [A13] | 12 | – | -9 | 31 | – | 24.5 | – | – | – | – | –
7 | O=C1CCC(N2C(=O)c3cc4c(cc3C2=O)OC2(CC4)CCN(C3CC4(CCN(c5ccc(C6c7ccc(O)cc7CCC6c6ccccc6)cc5)CC4)C3)CC2)C(=O)N1 (stereo not drawn) [A10] | -37 | – | -3 | 35 | – | 37.2 | – | – | – | – | –
8 | O=C1CCC(N2C(=O)c3cc4c(cc3C2=O)OC2(CC4)CCN(CC3CCN(c4ccc(C5c6ccc(O)cc6CCC5c5ccccc5)cc4)CC3)CC2)C(=O)N1 (stereo not drawn) [A1] | -11 | – | -17 | 8 | – | 49.5 | – | – | – | – | –
9 | O=C1CCC(N2Cc3cc4c(cc3C2=O)CCC2(CCN(C3CCC5(CC3)CCN(c3ccc(C6c7ccc(O)cc7CCC6c6ccccc6)cc3)CC5)CC2)O4)C(=O)N1 (stereo not drawn) [A21] | -15 | – | 4 | 19 | – | 2.52 | – | – | – | – | –

Results, then the molecule that gave them:

Row | Degradation rate (%) of ERα in T-47D cells ([1]; 10nM compound) [%] | IC50 [2, 6] [nM] | Degradation rate (%) of ERα in MCF-7 cells ([3]; 10nM compound) [%] | IC50 ([4]; Table 2) [nM] | IC50 ([4]; Table 3) [nM] | IC50 [5] [µM] | Degradation rate (%) of ERα in T-47D cells ([1]; 1nM compound) [%] | IC50 ([2]; Homo sapiens, MCF7, 216 h, 9 days of treatment, CCK-8, Table 5) [nM] | Degradation rate (%) of ERα in MCF-7 cells ([3]; 1nM compound) [%] | IC50 ([4]; Homo sapiens, T47D, 144 h, Table 2) [nM] | IC50 ([5]; Homo sapiens, MCF7, 144 h) [µM] | Compound
10 | 85 | – | 76 | – | – | – | 61 | 70 | 38 | 1.7 | 17.9 | O=C1CC[C@H](N2Cc3cc(N4CCN(CC5CCN(c6ccc([C@@H]7c8ccc(O)cc8CC[C@@H]7c7ccccc7)cc6)CC5)CC4)ccc3C2=O)C(=O)N1 [ARV-471, reference compound]
11 | -15 | – | 4 | 15 | – | 4.36 | – | – | – | – | – | O=C1CCC(N2Cc3cc4c(cc3C2=O)OCC2(CCN(C3CCC5(CC3)CN(c3ccc(C6c7ccc(O)cc7CCC6c6ccccc6)cc3)C5)CC2)O4)C(=O)N1 (stereo not drawn) [A27]
12 | -2 | – | 8 | 215 | – | 5.48 | – | – | – | – | – | O=C1CCC(N2Cc3cc4c(cc3C2=O)CCC2(CCN(C3C[C@@H]5CN(c6ccc(C7c8ccc(O)cc8CCC7c7ccccc7)cc6)C[C@@H]5C3)CC2)O4)C(=O)N1 (stereo partly drawn) [A29]
13 | -92 | – | -26 | 229 | – | 10.2 | – | – | – | – | – | O=C1CCC(N2Cc3cc4c(cc3C2=O)OC2(CC4)CCN(CC3CCN(c4ccc(C5c6ccc(O)cc6CCC5c5ccccc5)cc4)C3)CC2)C(=O)N1 (stereo not drawn) [B2]
14 | -1 | – | 8 | 20 | – | 23.4 | – | – | – | – | – | O=C1CCC(N2C(=O)c3cc4c(cc3C2=O)OC2(CCN(C3CCC5(CC3)CCN(c3ccc(C6c7ccc(O)cc7CCC6c6ccccc6)cc3)CC5)CC2)C4)C(=O)N1 (stereo not drawn) [A25]
